According to paper PMC9569839, “Methionine 274 Is Not the Determining Factor for Selective Inhibition of Histone Deacetylase 8 (HDAC8) by L-Shaped Inhibitors” (International Journal of Molecular Sciences, 2022):
Substitutions are numbered along the chain they refer to. Like-named read-outs stand apart in the source and are kept apart here.

Key:
HDAC1 = details: cited from earlier work
HDAC2 = details: cited from earlier work
HDAC4 = details: cited from earlier work
HDAC6 = details: cited from earlier work
HDAC8 = details: cited from earlier work
HDAC3 = details: read-out: IC50 (HDAC3), cited from earlier work
HDAC8wt = target: T1, HDAC8wt (Homo sapiens, UniProt Q9BY41); assay: Enzyme activity assay, IC50 determination with Boc-Lys(TFA)-AMC
T1 sequence (Q9BY41 1-377): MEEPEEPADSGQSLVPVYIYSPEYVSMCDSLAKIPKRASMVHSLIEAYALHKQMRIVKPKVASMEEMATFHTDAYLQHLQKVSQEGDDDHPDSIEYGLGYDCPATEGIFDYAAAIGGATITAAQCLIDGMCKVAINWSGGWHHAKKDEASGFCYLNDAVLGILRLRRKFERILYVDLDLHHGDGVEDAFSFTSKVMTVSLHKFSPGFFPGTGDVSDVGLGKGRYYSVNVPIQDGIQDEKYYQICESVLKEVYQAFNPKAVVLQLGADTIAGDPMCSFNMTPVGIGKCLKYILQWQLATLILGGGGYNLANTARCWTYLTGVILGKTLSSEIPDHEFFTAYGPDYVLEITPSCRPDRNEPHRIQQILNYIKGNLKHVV

HDAC8M274A = target: T2, HDAC8M274A (Homo sapiens, UniProt Q9BY41, M274A); assay: as above
T2 sequence (Q9BY41 1-377 M274A): T1 sequence (Q9BY41 1-377) with M274A

HDAC10 = details: cited from earlier work
HDAC11 = tested on: HDAC11; parameters: method as in Huang et al. [14]; details: ref Huang et al. [14]; cited from earlier work
[1] = tested on: several cancer cell lines; parameters: method as in PMID 22907916; details: ref [14]; cited from earlier work
[2] = TSA value of Figure 1, source not given
[3] = ref Balasubramanian et al. [12]

For `CC(/C=C/C(=O)NO)=C\[C@@H](C)C(=O)c1ccc(N(C)C)cc1` [TSA, trichostatin A], the IC50 (HDAC1; [2]) is given as […], the IC50 (HDAC2; [2]) is given as […] and the IC50 (HDAC4; [2]) is given as 3300 nM. For the same compound, the IC50 (HDAC6; [2]) was 17 nM and the IC50 (HDAC8; read-out: IC50 (HDAC8), TSA value of Figure 1, source not given) was 360 nM.
For `O=C(CCCCCCC(=O)Nc1ccccc1)NO` [SAHA, suberoylanilide hydroxamic acid], the IC50 (HDAC6; [3]) is given as 17 nM.
In the case of `O=C(NO)c1cccc(-c2cn(CSc3ccccc3)nn2)c1` [NCC-149], the IC50 (HDAC1; ref Suzuki et al. [13]) is listed as 38000 nM, the IC50 (HDAC2; ref Suzuki et al. [13]) is listed as over 100000 nM and the IC50 (HDAC4; ref Suzuki et al. [13]) is listed as 44000 nM. For the same compound, the IC50 (HDAC6; ref Suzuki et al. [13]) was 2400 nM, the IC50 (HDAC3; ref Suzuki et al. [13]) was over 68000 nM and the IC50 (HDAC8wt) was 40 nM. For the same compound, the IC50 (HDAC8M274A) was 300 nM.
In the case of `COc1ccc(/C=C/C(=O)NO)c(-c2ccc(-c3ccccc3)cc2)c1` [o-ACHA], the IC50 (HDAC1; ref Huang et al. [14]) is given as 3000 nM, the IC50 (HDAC2; ref Huang et al. [14]) is given as over 20000 nM and the IC50 (HDAC4; ref Huang et al. [14]) is given as over 20000 nM. For the same compound, the IC50 (HDAC6; ref Huang et al. [14]) was over 20000 nM, the IC50 (HDAC10; ref Huang et al. [14]) was over 20000 nM and the IC50 (HDAC11) was over 20000 nM. The antiproliferative effects [1] was “antiproliferative effects against several cancer cell lines” and the IC50 (HDAC3; ref Huang et al. [14]) was 3000 nM.
